Experimental data: PubChem BioAssay (NCI)
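These data come from cells grown in 96-well plates and exposed to compound for 48 hours at five concentrations. The concentration for 50% growth inhibition is given as GI50. TGI: concentration producing complete growth inhibition.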

Columns and labels:
Assay in all cases: NCI anticancer screen, dose series, 48 h
MCF7 breast = test system: MCF7 breast
TK-10 renal = test system: TK-10 renal
COLO 205 colon = test system: COLO 205 colon
SF-539 CNS = test system: SF-539 CNS
OVCAR-4 ovarian = test system: OVCAR-4 ovarian
HOP-62 NSCLC = test system: HOP-62 NSCLC
HCC-2998 colon = test system: HCC-2998 colon
SF-268 CNS = test system: SF-268 CNS
K-562 leukemia = test system: K-562 leukemia
HS 578T breast = test system: HS 578T breast
UACC-257 melanoma = test system: UACC-257 melanoma
OVCAR-8 ovarian = test system: OVCAR-8 ovarian
CAKI-1 renal = test system: CAKI-1 renal
SK-MEL-2 melanoma = test system: SK-MEL-2 melanoma
A549 NSCLC = test system: A549 NSCLC
SNB-19 CNS = test system: SNB-19 CNS
MALME-3M melanoma = test system: MALME-3M melanoma
M14 melanoma = test system: M14 melanoma
HCT-15 colon = test system: HCT-15 colon
MDA-MB-435 = test system: MDA-MB-435
HCT-116 colon = test system: HCT-116 colon
BT-549 breast = test system: BT-549 breast
NCI/ADR-RES ovarian = test system: NCI/ADR-RES ovarian
SW-620 colon = test system: SW-620 colon
OVCAR-5 ovarian = test system: OVCAR-5 ovarian
NCI-H226 lung = test system: NCI-H226 lung
RPMI-8226 leukemia = test system: RPMI-8226 leukemia
EKVX NSCLC = test system: EKVX NSCLC
CCRF-CEM leukemia = test system: CCRF-CEM leukemia
SK-OV-3 ovarian = test system: SK-OV-3 ovarian
SR leukemia = test system: SR leukemia
SK-MEL-5 melanoma = test system: SK-MEL-5 melanoma
IGROV1 ovarian = test system: IGROV1 ovarian
DU-145 prostate = test system: DU-145 prostate
KM12 colon = test system: KM12 colon
HT29 colon = test system: HT29 colon
ACHN renal = test system: ACHN renal
SN12C renal = test system: SN12C renal
MOLT-4 leukemia = test system: MOLT-4 leukemia
OVCAR-3 ovarian = test system: OVCAR-3 ovarian
A498 renal = test system: A498 renal
RXF 393 renal = test system: RXF 393 renal
U251 CNS = test system: U251 CNS
NCI-H23 lung = test system: NCI-H23 lung
NCI-H522 lung = test system: NCI-H522 lung
SK-MEL-28 melanoma = test system: SK-MEL-28 melanoma
PC-3 prostate = test system: PC-3 prostate
MDA-MB-231 breast = test system: MDA-MB-231 breast
NCI-H460 lung = test system: NCI-H460 lung
HOP-92 NSCLC = test system: HOP-92 NSCLC
LOX IMVI melanoma = test system: LOX IMVI melanoma
SNB-75 CNS = test system: SNB-75 CNS
SF-295 CNS = test system: SF-295 CNS
HL-60(TB) leukemia = test system: HL-60(TB) leukemia
T-47D breast = test system: T-47D breast
786-0 renal = test system: 786-0 renal
UACC-62 melanoma = test system: UACC-62 melanoma

CC1=C(CN(O)C(N)=O)C2=C(C)C3(CC3)[C@@](C)(O)C(=O)C2=C1
GI50 (MCF7 breast): 921 nM
TGI (MCF7 breast): 10100 nM
GI50 (TK-10 renal): 308 nM
TGI (TK-10 renal): 909 nM
GI50 (COLO 205 colon): 185 nM
TGI (COLO 205 colon): 517 nM
GI50 (SF-539 CNS): 216 nM
TGI (SF-539 CNS): 556 nM
GI50 (OVCAR-4 ovarian): 285 nM
TGI (OVCAR-4 ovarian): 1550 nM
GI50 (HOP-62 NSCLC): 178 nM
TGI (HOP-62 NSCLC): 996 nM
GI50 (HCC-2998 colon): 174 nM
TGI (HCC-2998 colon): 414 nM
GI50 (SF-268 CNS): 236 nM
TGI (SF-268 CNS): 1560 nM
GI50 (K-562 leukemia): 16300 nM
TGI (K-562 leukemia): > 100000 nM
GI50 (HS 578T breast): 503 nM
TGI (HS 578T breast): 3000 nM
GI50 (UACC-257 melanoma): 280 nM
TGI (UACC-257 melanoma): 765 nM
GI50 (OVCAR-8 ovarian): 337 nM
TGI (OVCAR-8 ovarian): 6680 nM
GI50 (CAKI-1 renal): 253 nM
TGI (CAKI-1 renal): 1350 nM
GI50 (SK-MEL-2 melanoma): 356 nM
TGI (SK-MEL-2 melanoma): 1210 nM
GI50 (A549 NSCLC): 118 nM
TGI (A549 NSCLC): 1220 nM
GI50 (SNB-19 CNS): 469 nM
TGI (SNB-19 CNS): 6180 nM
GI50 (MALME-3M melanoma): 205 nM
TGI (MALME-3M melanoma): 424 nM
GI50 (M14 melanoma): 269 nM
TGI (M14 melanoma): 699 nM
GI50 (HCT-15 colon): 267 nM
TGI (HCT-15 colon): 883 nM
GI50 (MDA-MB-435): 662 nM
TGI (MDA-MB-435): 2370 nM
GI50 (HCT-116 colon): 267 nM
GI50 (BT-549 breast): 367 nM
TGI (BT-549 breast): 1590 nM
GI50 (NCI/ADR-RES ovarian): 381 nM
TGI (NCI/ADR-RES ovarian): 3110 nM
GI50 (SW-620 colon): 10800 nM
TGI (SW-620 colon): > 100000 nM
GI50 (OVCAR-5 ovarian): 367 nM
TGI (OVCAR-5 ovarian): 2270 nM
GI50 (NCI-H226 lung): 235 nM
TGI (NCI-H226 lung): 644 nM
GI50 (RPMI-8226 leukemia): 7190 nM
TGI (RPMI-8226 leukemia): > 100000 nM
GI50 (EKVX NSCLC): 346 nM
TGI (EKVX NSCLC): 1530 nM
GI50 (CCRF-CEM leukemia): 29600 nM
TGI (CCRF-CEM leukemia): > 100000 nM
GI50 (SK-OV-3 ovarian): 305 nM
TGI (SK-OV-3 ovarian): 1090 nM
GI50 (SR leukemia): 7600 nM
TGI (SR leukemia): > 80900 nM
GI50 (SK-MEL-5 melanoma): 195 nM
TGI (SK-MEL-5 melanoma): 409 nM
GI50 (IGROV1 ovarian): 208 nM
TGI (IGROV1 ovarian): 940 nM
GI50 (DU-145 prostate): 43.9 nM
TGI (DU-145 prostate): 1110 nM
GI50 (KM12 colon): 530 nM
TGI (KM12 colon): 5410 nM
GI50 (HT29 colon): 316 nM
TGI (HT29 colon): > 34500 nM
GI50 (ACHN renal): 236 nM
TGI (ACHN renal): 572 nM
GI50 (SN12C renal): 373 nM
TGI (SN12C renal): 2670 nM
GI50 (MOLT-4 leukemia): 21300 nM
TGI (MOLT-4 leukemia): > 100000 nM
GI50 (OVCAR-3 ovarian): 260 nM
TGI (OVCAR-3 ovarian): 769 nM
GI50 (A498 renal): 175 nM
TGI (A498 renal): 359 nM
GI50 (RXF 393 renal): 141 nM
TGI (RXF 393 renal): 290 nM
GI50 (U251 CNS): 337 nM
GI50 (NCI-H23 lung): 109 nM
TGI (NCI-H23 lung): 544 nM
GI50 (NCI-H522 lung): 1230 nM
TGI (NCI-H522 lung): 4650 nM
GI50 (SK-MEL-28 melanoma): 229 nM
TGI (SK-MEL-28 melanoma): 505 nM
GI50 (PC-3 prostate): 398 nM
TGI (PC-3 prostate): 5240 nM
GI50 (MDA-MB-231 breast): 324 nM
TGI (MDA-MB-231 breast): 1780 nM
GI50 (NCI-H460 lung): 45.2 nM
TGI (NCI-H460 lung): 909 nM
GI50 (HOP-92 NSCLC): 208 nM
TGI (HOP-92 NSCLC): 618 nM
GI50 (LOX IMVI melanoma): 402 nM
TGI (LOX IMVI melanoma): 2040 nM
GI50 (SNB-75 CNS): 215 nM
TGI (SNB-75 CNS): 464 nM
GI50 (SF-295 CNS): 252 nM
TGI (SF-295 CNS): 1160 nM
GI50 (HL-60(TB) leukemia): 279 nM
TGI (HL-60(TB) leukemia): 3550 nM
GI50 (T-47D breast): 214 nM
TGI (T-47D breast): 1720 nM
GI50 (786-0 renal): 343 nM
GI50 (UACC-62 melanoma): 224 nM
TGI (UACC-62 melanoma): 562 nM
